US20150038671A1, “Efficient Synthesis of CN2097 and RC7 and Their Analogs” (priority 2013, published 2015)
Starred links: 1 amine or outer side, 2 acyl side, 3 side chain; linkers in the order of their positions; H or OH if unused. Positions of bridges follow the written chain, without caps; N, C: chain ends. Non-standard residues stand in square brackets, D forms with d. Residues, ends and D or L forms follow the SMILES beside them. Chains are numbered I, II in the order given. Dmt = Cc1cc(O)cc(C)c1C[C@H](N)C(=O)O; X1 = O=C(CCN[*:2])[*:1]

Assay: Plasma stability (T1/2) in the blood plasma, HPLC analysis
Type: in vitro ADME
Conditions: time by which the compound was degraded by enzyme to the 50% of original amount
Procedure: The stability of CN2097 and Szeto CN2097 derivatives in blood was determined as follows.
The detection limit of CN2097 was measured by HPLC analysis. Various concentrations of CN2097 were prepared in PBS and injected in HPLC and monitored at 214 nm. The HPLC analysis of CN2097 using 50 microliter injection and detecting up to 500 micromolar. The lowest level of detection was at 2 micromolar, corresponding to 0.1 nmole or 237.68 ng (FIG. 13).
The T1/2 is the time by which the compound was degraded by enzyme to the 50% of original amount.

| half-life [min] | Compound |
| --- | --- |
| ~28 | CC(C)[C@H](NC(=O)[C@@H]1CCC(=O)NCCC(=O)NCCCC[C@H](NC(=O)[C@H](CCCCN)NC(=O)[C@H](Cc2ccc(O)cc2)NC(=O)[C@H](CC(N)=O)NC(=O)[C@H](CCCCN)NC(=O)[C@@H](N)CS)C(=O)N[C@@H]([C@@H](C)O)C(=O)N1)C(=O)O [CN, Cys-Lys-Asn-Tyr-Lys-[Lys-Thr-Glu(β Ala)]-Val (NH2-CKNYK-[KTE(β-A)]V—OH)] (H-CKNYKKTEV-OH; linker 6-8 via X1) |
| ~48.2 | CC(C)[C@H](NC(=O)[C@@H]1CCC(=O)NCCC(=O)NCCCC[C@H](NC(=O)[C@H](CCCCN)NC(=O)[C@H](Cc2ccc(O)cc2)NC(=O)[C@H](CC(N)=O)NC(=O)[C@H](CCCCN)NC(=O)[C@@H](N)CSSC[C@H](N)C(=O)N[C@@H](CCCNC(=N)N)C(=O)N[C@@H](CCCNC(=N)N)C(=O)N[C@@H](CCCNC(=N)N)C(=O)N[C@@H](CCCNC(=N)N)C(=O)N[C@@H](CCCNC(=N)N)C(=O)N[C@@H](CCCNC(=N)N)C(=O)N[C@@H](CCCNC(=N)N)C(N)=O)C(=O)N[C@@H]([C@@H](C)O)C(=O)N1)C(=O)O [CN2097] (I: H-CKNYKKTEV-OH / II: H-CRRRRRRR-NH2; disulfide I:1-II:1; linker I:6-I:8 via X1) |

| Compound | half-life [min] |
| --- | --- |
| Cc1cc(O)cc(C)c1C[C@H](N)C(=O)N[C@H](CCCNC(=N)N)C(=O)N[C@@H](Cc1ccccc1)C(=O)N[C@@H](CCCCN)C(=O)N[C@@H](CSSC[C@H](N)C(=O)N[C@@H](CCCCN)C(=O)N[C@@H](CC(N)=O)C(=O)N[C@@H](Cc1ccc(O)cc1)C(=O)N[C@@H](CCCCN)C(=O)N[C@H]1CCCCNC(=O)CCNC(=O)CC[C@@H](C(=O)N[C@H](C(=O)O)C(C)C)NC(=O)[C@H]([C@@H](C)O)NC1=O)C(N)=O [Sezto-CN] (I: H-CKNYKKTEV-OH / II: H-[Dmt][dR]FKC-NH2; disulfide I:1-II:5; linker I:6-I:8 via X1) | ~43.2 |
